Where a name gives a salt, the structure may show the parent alone. Read-outs that look alike come from different tables or passages of the source.
What was measured:
C. parvum HNJ-1 strain [1] = assay: In vivo C. parvum growth inhibition assay (oocyst shedding in feces of infected SCID mice, sugar flotation); parameters: species or system Cryptosporidium parvum; settings: for numbers of oocysts discharged in the feces: 50, 25 and 12.5 mg/kg oral, infected SCID mice; for % of oocysts shedding / % reduction in oocysts shedding: initial dose-finding (S1 Table), 1 mouse; for % reduction in oocyst shedding: SCID mice n=3, vs untreated infected control
[2] = for body weight of treated infected mice: initial dose-finding doses, 11 consecutive days (S1 Fig)
Description: The growth inhibitory effect of the hit compounds was assessed in a mouse model infected with C. parvum oocysts. In this experiment, four-week-old female SCID mice (Charles River Laboratories, Shizuoka, Japan) were used. In the infected groups, mice were orally inoculated with 1.0 × 10^5 C. parvum oocysts by using sterile gavage needles. Initially, four compounds were tested at different concentrations to figure out the optimum dosages. Six groups of mice were given oral dosages of 50, 25, and 12.5 mg/kg body weight (BW) of two compounds (alisol-A and alisol-B). […] Bufotalin was given orally at three different doses to the other mouse group: 0.1, 0.05, and 0.025 mg/kg BW. […] The positive control group consisted of infected and untreated mice, whereas the negative control group consisted of noninfected and untreated mice. Treatment began on the third day after infection and lasted until the thirteenth day. The body weight and condition were checked every day, and treatment was given based on the body weight. On days 1, 3, 6, 7, 9, 12, 14, fecal samples were taken. The total number of oocysts per gram was calculated after counting the oocysts in the feces using the sugar flotation method. The treated and untreated mice were euthanized by cervical dislocation on day 14, and a thorough necropsy was performed.

C. parvum = assay: Histopathological analysis and immunohistochemistry of ileum of C. parvum-infected mice; format: in vivo, Cryptosporidium parvum; parameters: key to severity of C. parvum infection in ileum, Score: -, no oocysts; 1+, mild focal infection; 2+, moderate multifocal infection; 3+, severe diffuse infection; settings: for severity of C. parvum infection in ileum, Score: HE and immunohistochemistry, most severe area, day 14, dose not stated; for reduction of oocysts, histopathological and scanning electron microscopy findings: ileum of infected treated mice (S2 Fig)
Description: (§1) We performed a histopathological analysis to evaluate the growth inhibitory effects and toxicity of the hit compounds in C. parvum-infected mice. In brief, ileum was collected, fixed in 10% neutral buffered formalin, and paraffin-embedded. Each section was cut to a thickness of 4 μm for hematoxylin and eosin (HE) staining and immunohistochemistry. Immunohistochemistry (IHC) was performed following standard techniques using the Envision+ system (Agilent Technologies, Inc., Santa Clara, CA) and 3,3-diaminobenzidine (DAB)(Dojindo, Kumamoto, Japan). Anti-Toxoplasma gondii (RH strain) rabbit polyclonal IgG (Abcam, Cambridge, UK) was used as the primary antibody. The antibody cross reacts with C. Parvum. To reduce the endogenous peroxidase activity, the sections were incubated with 3% H2O2 for 5 minutes. Sections were incubated with primary antibodies overnight at 4°C. After washing with PBS with Tween 20 (PBST), sections were incubated with Envision+ single polymer solution (Agilent Technologies Inc.) for 30 minutes at room temperature. Sections were counterstained with Mayer’s hematoxylin. The severity of C. parvum infection was evaluated in the most severe area, and scored from—to 3+ (-, no oocysts; 1+, mild focal infection; 2+, moderate multifocal infection; 3+, severe diffuse infection). Sub-effects of drugs (hepatocellular damage) were evaluated for major histological changes in karyomegaly, hepatocellular hypertrophy, and interstitial fibrosis/inflammation. We also checked the organs (liver, heart, lung, kidney, and intestines) alteration at necropsy whether it has abnormal or normal.

C. parvum HNJ-1 strain [3] = assay: In vitro C. parvum growth inhibition assay (Sporo-Glo staining, fluorescence microscopy count in infected HCT-8 cells); format: cell-based, Cryptosporidium parvum; settings: for EC50 / inhibition at 1 µM: Cryptosporidium parvum; for EC50: read-out: EC50 value; for inhibition at 1 µM: read-out: Parasite inhibition (%); for Selectivity index: ratio of CC50 (HCT-8) / EC50 (C. parvum)
Description: The primary screening of compounds for C. parvum was performed as follows: HCT-8 cells were seeded in 96-well plates at a density of 2 × 10^4 cells/well and allowed to grow overnight. Before infecting cells, Cryptosporidium oocysts were excysted to sporozoites. 87 compounds were tested against C. parvum at a single concentration of 1 μM. Each compound was tested once. Infected HCT-8 cells and uninfected HCT-8 cells were used as positive and negative controls, respectively, in medium containing 0.1% DMSO. Nitazoxanide was used as a standard comparative drug. In vitro inhibition assays were carried out as previously described. Briefly, oocysts were suspended in 1 ml of 0.1% sodium hypochlorite in PBS, incubated for 5 min at 4°C, centrifuged for 10 min at 3000 rpm, and washed three times in PBS. The oocysts were then suspended in excystation solution consisting of 0.75% sodium taurocholate and 0.25% trypsin dissolved in 0.1 M phosphate buffer (with 93.4 mM K2HPO4 and 6.5 mM KH2PO4; pH 8.0) and incubated at 37°C for 1 h. The oocyst/sporozoite suspensions were then rinsed in 1 x PBS (with 137 mM NaCl, 2.7 mM KCl, 8 mM Na2HPO4, and 2 mM KH2PO4; pH 7.5) once more before being filtered through a 5-μm pore-size PVDF filter (Millipore, Burlington, MA, USA) with 5 ml syringe to remove the oocyst wall. HCT-8 cells were seeded in 96-well plates (Thermo Fisher Scientific Inc., MA, USA) and incubated overnight. The cells were then infected with C. parvum sporozoites (4 ×10^4 sporozoites/well) containing in RPMI-1640 medium for 3 h. After 3h inoculation, the non-infected parasite or debris were washed with new RPMI-1640 media. At this point, in RPMI-1640 medium containing 1 μM library compounds were added. Infected cells were incubated for an additional 45 h. Following incubation, the infected cells were fixed for 10 minutes in ice-cold 100% methanol at room temperature. Plates were then carefully rinsed 3 times with PBS. The parasite infected cells were then blocked with 1% bovine serum albumin (BSA) in PBS for 30 minutes and then stained with Sporo-Glo (an anti-Cryptosporidium polyclonal antibody) (Waterborne Environmental, Inc., VA, USA) protected from light for 1 h at room temperature. Finally, cells were washed twice with 1 x PBS-T (1 x PBS supplemented with 0.01% Tween). A Keyence BZ-II 9000 was used to capture the images (KEYENCE, Osaka, Japan). The plates were imaged with a HS all-in-one fluorescence microscope using a 20 x objective. The image output was imported into Microsoft excel for data organization and analyses. All C. parvum parasite in the well were counted.
For a second investigation, four selective hit compounds were used to determine the half-maximum inhibitory concentration (EC50). The parasites were treated with various doses of compounds (ranging from 0.008–1 μM). HCT-8 cells (2 × 10^4 cells/well) were grown for 24 h before being infected with 4 × 10^4 C. parvum sporozoites in 96-well plates. […] Sporo-Glo was used for C. parvum staining as described above. Fluorescence microscopy with a Keyence BZ-II 9000 imager was used to count all Cryptosporidium in the wells (KEYENCE, Osaka, Japan). EC50 vales were determined by analyzing dose-response curves made by GraphPad Prism (GraphPad Software, CA, USA).

HCT-8 cells = assay: Host cell viability assay (Cell-Titer Glo); settings: HCT-8 cells, 48 h, 1 μM
Description: (§2) HCT-8 cells (4 × 10^4 cells/well) 100 μl were seeded in 96-well plates, cultured for 24 h, and then treated for 48 h with different concentrations of hit compounds (10^1, 1, 10^−1, 10^−2, 10^−3, 10^−4 μM). After a 48-h incubation period, equilibrate the 96-well plates in room temperature (RT) for 30 minutes. Then, equal volume of Cell-Titer Glo (Promega) reagent was added to each treated well, the plate was shaken on an orbital shaker for 2 minutes then incubated for 10 minutes at RT. The luminescence was quantified by the GloMax Navigator plate reader (Promega, Japan) and the cell viability was evaluated as directed by the kit manufacturer. The luminescence signal of control wells containing DMSO was set to 100% cell viability. […] Graph Pad Prism 7.0.1 was used to determine CC50 values.

[4] = Host cell viability assay (Cell-Titer Glo)
Description: as §2

[5] = Liver histology (sub-effects of drugs, hepatocellular damage) in treated mice; format: in vivo, SCID mice; settings: HE stain, infected treated mice (S3 Fig)
Description: as §1

[6] = 1 μM, 45 h, C. parvum HNJ-1 strain in HCT-8 cells, first screen
[7] = human, HCT-8 cells, Host cell viability (%), 48 h, 1 μM
[8] = human, Host cell viability (%), HCT-8 cells, 48 h, 1 μM

Question: What does the source list for `C[C@H](C[C@H](O)[C@@H](O)C(C)(C)O)C1=C2C[C@H](O)[C@H]3[C@@]4(C)CCC(=O)C(C)(C)[C@@H]4CC[C@]3(C)[C@@]2(C)CC1` [Alisol-A]?
Answer: numbers of oocysts discharged in the feces (C. parvum HNJ-1 strain [1]): no significant reduction; % of oocysts shedding (C. parvum HNJ-1 strain [1]; 12.5 mg/kg BW, 11 days): 55.6%; % reduction in oocysts shedding (C. parvum HNJ-1 strain [1]; 12.5 mg/kg BW, 11 days): 44.4%; body weight of treated infected mice [2]: not significant; body weight of treated infected mice ([2]; listed as alisol-A): no significant difference; adverse effects / death of treated mice ([2]; oral, at 50 and 25 mg/kg body weight, infected SCID mice): died; severity of C. parvum infection in ileum, Score (C. parvum): 3+; reduction of oocysts, histopathological and scanning electron microscopy findings (C. parvum): no notable reduction of oocysts; EC50 (C. parvum HNJ-1 strain [3]; HCT-8, C. parvum HNJ-1, 0.008–1 μM, 45 h, mean of three experiments): 123 ± 6.7 nM; inhibition at 1 µM (C. parvum HNJ-1 strain [3]; [6]): 78.1%; Selectivity index (C. parvum HNJ-1 strain [3]): 484.4; Host cell viability (%) (HCT-8 cells): 99.5%; CC50 at 48 h ([4]; human, HCT-8 cells): 59600 nM; viability at 48 h, 1 µM [4, 7]: > 95%

Question: With `C[C@H](C[C@H](O)[C@H]1OC1(C)C)C1=C2C[C@H](O)[C@H]3[C@@]4(C)CCC(=O)C(C)(C)[C@@H]4CC[C@]3(C)[C@@]2(C)CC1` [Alisol-B] as the compound, how does the “numbers of oocysts discharged in the feces” value (C. parvum HNJ-1 strain [1]) read?
Answer: no significant reduction

Question: And the “% of oocysts shedding” value (C. parvum HNJ-1 strain [1]; 12.5 mg/kg BW, 11 days)?
Answer: 61.3%

Question: And the “% reduction in oocysts shedding” value (C. parvum HNJ-1 strain [1]; 12.5 mg/kg BW, 11 days)?
Answer: 38.7%

Question: And the “adverse effects / death of treated mice” value ([2]; mouse, in vivo)?
Answer: died

Question: And the “severity of C. parvum infection in ileum, Score” value (C. parvum)?
Answer: 2+

Question: What about the “reduction of oocysts, histopathological and scanning electron microscopy findings” value (C. parvum) of the same compound?
Answer: no notable reduction of oocysts

Question: And the EC50 (C. parvum HNJ-1 strain [3]; HCT-8, 45 h)?
Answer: 79.6 ± 13.8 nM

Question: And the inhibition at 1 µM (C. parvum HNJ-1 strain [3]; HCT-8, 45 h)?
Answer: 92.9%

Question: And the Selectivity index (C. parvum HNJ-1 strain [3])?
Answer: 460.6

Question: What about the “Host cell viability (%)” value (HCT-8 cells) of the same compound?
Answer: 97.6%

Question: What about the CC50 at 48 h ([4]; human) of the same compound?
Answer: 36700 nM

Question: What about the viability at 48 h, 1 µM [4, 8] of the same compound?
Answer: > 95%

Question: What does the source list for `CN1[C@@H]2CC[C@H]1C[C@@H](OC(=O)C(CO)c1ccccc1)C2` (stereo partly drawn) [Atropine sulfate, reference compound]?
Answer: No. of oocysts, Mean (C. parvum HNJ-1 strain [1]; 50 mg/kg BW oral, 11 days, SCID mice n=3, mean of days 3, 6, 7, 9, 12, 14): 96.6; % reduction in oocyst shedding (C. parvum HNJ-1 strain [1]; 50 mg/kg BW oral, 11 days): 56.2%; No. of oocysts, Mean (C. parvum HNJ-1 strain [1]; 100 mg/kg BW oral, 11 days, SCID mice n=3, mean of days 3, 6, 7, 9, 12, 14): 91.1; % reduction in oocyst shedding (C. parvum HNJ-1 strain [1]; 100 mg/kg BW oral, 11 days): 58.7%; No. of oocysts, Mean (C. parvum HNJ-1 strain [1]; 200 mg/kg BW oral, 11 days (day 3–13 p.i.), SCID mice n=3, mean of oocysts shed on days 3, 6, 7, 9, 12, 14): 71.1; % reduction in oocyst shedding (C. parvum HNJ-1 strain [1]; 200 mg/kg BW oral, 11 days): 67.8%; % of oocysts shedding (C. parvum HNJ-1 strain [1]; 25 mg/kg BW, 11 days): 75.2%; % reduction in oocysts shedding (C. parvum HNJ-1 strain [1]; 25 mg/kg BW, 11 days): 24.8%; % reduction in oocysts shedding (C. parvum HNJ-1 strain [1]; 50 mg/kg BW, 11 days): 50.9%; % of oocysts shedding (C. parvum HNJ-1 strain [1]; 100 mg/kg BW, 11 days): 45.1%; % reduction in oocysts shedding (C. parvum HNJ-1 strain [1]; 100 mg/kg BW, 11 days): 54.9%; histological findings in liver [5]: inflammation; body weight of treated infected mice [2]: not significant; severity of C. parvum infection in ileum, Score (C. parvum): 2+; EC50 (C. parvum HNJ-1 strain [3]; HCT-8, 45 h): 254 ± 30.3 nM; inhibition at 1 µM (C. parvum HNJ-1 strain [3]; HCT-8, 45 h): 72.3%

Question: For `CC(=O)O[C@H]1[C@H]2O[C@]23[C@@H]2CC[C@]4(O)C[C@@H](O)CC[C@]4(C)[C@H]2CC[C@]3(C)[C@H]1c1ccc(=O)oc1` [Cinobufotalin], which inhibition at 1 µM (C. parvum HNJ-1 strain [3]; HCT-8, 45 h) is on record?
Answer: 70.7%

Question: And the viability at 48 h, 1 µM [4, 8]?
Answer: 97.8%

Question: Which inhibition at 1 µM (C. parvum HNJ-1 strain [3]; [6]) does the source give for `COc1cc(CNC(=O)CCCCCCC(C)C)ccc1O` [Dihydrocapsaicin] here?
Answer: 70.8%

Question: And the viability at 48 h, 1 µM [4, 7]?
Answer: 98.4%

Question: With `CC(C)=CCC[C@](C)(O[C@@H]1O[C@H](CO)[C@@H](O)[C@H](O)[C@H]1O)[C@H]1CC[C@]2(C)[C@@H]1[C@H](O)C[C@@H]1[C@@]3(C)CC[C@H](O)C(C)(C)[C@@H]3[C@@H](O[C@@H]3O[C@H](CO)[C@@H](O)[C@H](O)[C@H]3O[C@@H]3O[C@@H](C)[C@H](O)[C@@H](O)[C@H]3O)C[C@]12C` [Ginsenoside-Re] as the compound, how does the inhibition at 1 µM (C. parvum HNJ-1 strain [3]; [6]) read?
Answer: 71.2%

Question: What about the viability at 48 h, 1 µM [4, 7] of the same compound?
Answer: 98.7%

Question: Which inhibition at 1 µM (C. parvum HNJ-1 strain [3]; [6]) does the source give for `CC(C)=CCC[C@](C)(O[C@@H]1O[C@H](CO)[C@@H](O)[C@H](O)[C@H]1O)[C@H]1CC[C@]2(C)[C@@H]1[C@H](O)C[C@@H]1[C@@]3(C)CC[C@H](O)C(C)(C)[C@@H]3[C@@H](O[C@@H]3O[C@H](CO)[C@@H](O)[C@H](O)[C@H]3O)C[C@]12C` [Ginsenoside-Rg1] here?
Answer: 67.9%

Question: And the viability at 48 h, 1 µM [4, 7]?
Answer: 99.1%

Question: For `CC(C)=CC[C@@H](O)C1=CC(=O)c2c(O)ccc(O)c2C1=O` [Shikonin], which inhibition at 1 µM (C. parvum HNJ-1 strain [3]; HCT-8, 45 h) is on record?
Answer: 66.2%
